# Results: patent US20250241895A1 (GH RESEARCH IRELAND LIMITED, priority 2022, published 2025)
# Assay: Pharmacokinetics of 5-MeO-DMT and bufotenine after inhalation
# Format: in vivo, human
# Conditions: LLOQ 25 pg/ml
# Description: Blood samples were obtained at 1; 2; 4; 7; 10; 15; 20; 30; 45 min and 1; 1.5; 2; 3; 4 hours after administration.
# PK parameters were generated by algebraic analysis of the concentration versus time plots for each individual. The analysis was carried out using the software Phoenix WinNonlin 6.3.
smiles,measurement,setting,value
CN(C)CCc1c[nH]c2ccc(O)cc12 [bufotenine],samples with bufotenine concentration above LLOQ,,Only in few samples
same,bufotenine blood concentration,from 15 min onwards after 5-MeO-DMT inhalation,< 25 pg/mL
